Measurements: patent US9889152B2, “Multiple PPI dosage form” (TAKEDA PHARMACEUTICALS U.S.A., INC., priority 2004, dated 2018)

Legend:
[1] = test system: gastric pH; assay: Threshold level modeling: effect compartment / sigmoid Emax PK-PD model of intragastric pH versus lansoprazole concentration after single intravenous doses; assay type: in vivo, humans; details: effect compartment concentration (assumed same as plasma concentration at steady-state), fasting, FIG. 1
Excerpt: Plasma concentration data obtained following administration of single intravenous doses of lansoprazole in humans was modeled to establish threshold concentrations above which a PPI is effective. Initially, gastric pH measured over the five hours post dosing (under fasting conditions) was plotted as a function of plasma concentration. However, no direct relationship between the gastric pH and the drug's plasma concentration could be established. […] An effect compartment model was then used in an attempt to delineate a useful relationship between drug concentration and effect. Accordingly, a model was proposed where a PK compartment was linked to a separate effect compartment. […] Using the same intravenous data, the pharmacological effect was modeled using sigmoid Emax model and PK was modeled using the two compartment model. The modeling first established the pharmacokinetic characteristics of lansoprazole, then the relationship between drug plasma concentration and intragastric pH was established, and pharacodynamic parameter estimates were obtained. The modeling provided the graph shown in FIG. 1 where the effect compartment concentration (assumed to be the same as the plasma concentration at steady-state) is on the x-axis and gastric pH on the y-axis. […]

[2] = Site of absorption study (Phase 1, remote control capsule, segmental absorption and pharmacokinetics); assay type: in vivo, human; details: 30 mg powder with sodium bicarbonate released via remote control capsule; healthy adult males
Excerpt: This was a Phase 1, open-label, non-randomized, four-period, single-dose, crossover study in 8 healthy adult males. […] Upon receiving a remote signal during Periods 1, 2, and 3, the capsule released it's contents in the pre-designated site within the GI tract (see table 1 below).
Indium-111 chloride (^111 In-chloride) was used as the radioactive marker in the test formulation that was filled into remote control capsule. Each subject also received a second radioisotope, technetium-99m DTPA (^99mTc-DTPA), in the water used to swallow the InteliSite Companion capsule. Since the radioisotopes are not absorbed, progress of the formulation through the GI tract was monitored using a gamma camera that captures images at frequent intervals after ingestion of the dose. The radioisotope in the water outlined or “mapped” the GI tract to delineate the targeted site of drug release. […]
The relative bioavailability of lansoprazole delivered to the proximal small intestine, distal small intestine, or colon compared to the delayed release lansoprazole capsule was calculated as the ratios of AUC∞ for different GI regions to that of the delayed release capsule. In addition, the relative bioavailability of lansoprazole delivered to the distal small intestine and colon compared to the proximal small intestine was calculated.

extent of absorption when directly delivered to the colon [2]: reduced
Compound: Cc1c(OCC(F)(F)F)ccnc1C[S+]([O-])c1nc2ccccc2[nH]1 (stereo not shown) [lansoprazole]
concentration above which the effect on gastric pH levels off [1]: ~450 ng/ml
threshold concentration above which the effect of the drug (rise of gastric pH above baseline) begins [1]: approximately 100 ng/ml
rate and extent of absorption from the distal small intestine versus proximal intestine [2]: less than those obtained for the proximal intestine, although the absorptions were comparable
